Results reported in ChEMBL document CHEMBL4804286, “3-amino-4-(4-(4 (dimethylcarbamoyl) phenyl)-1,4-diazepan-1-yl) thieno [2,3-b] pyridine-2-carboxamide for use in cancer therapy and formulations comprising the same” (2020).
Values joined by “and” are separate entries in the source; they are usually repeats but may differ in a detail not shown here. Identical values can stand only once. Active and inactive are the calls of the source. No cut-off for these calls is given here.

Key:
[1] = system: Phosphatidylinositol 4,5-bisphosphate 3-kinase catalytic subunit alpha isoform (Homo sapiens), P42336 [C420R]; assay: Inhibition of human PIK3CA C420R mutant assessed as percent of control at 2000 nM by KINOMEscan assay relative to control; parameters: scale not given: the % may be the effect or the level left
Sequence of Phosphatidylinositol 4,5-bisphosphate 3-kinase catalytic subunit alpha isoform (Homo sapiens), P42336 [C420R] (P42336 whole entry C420R, canonical isoform): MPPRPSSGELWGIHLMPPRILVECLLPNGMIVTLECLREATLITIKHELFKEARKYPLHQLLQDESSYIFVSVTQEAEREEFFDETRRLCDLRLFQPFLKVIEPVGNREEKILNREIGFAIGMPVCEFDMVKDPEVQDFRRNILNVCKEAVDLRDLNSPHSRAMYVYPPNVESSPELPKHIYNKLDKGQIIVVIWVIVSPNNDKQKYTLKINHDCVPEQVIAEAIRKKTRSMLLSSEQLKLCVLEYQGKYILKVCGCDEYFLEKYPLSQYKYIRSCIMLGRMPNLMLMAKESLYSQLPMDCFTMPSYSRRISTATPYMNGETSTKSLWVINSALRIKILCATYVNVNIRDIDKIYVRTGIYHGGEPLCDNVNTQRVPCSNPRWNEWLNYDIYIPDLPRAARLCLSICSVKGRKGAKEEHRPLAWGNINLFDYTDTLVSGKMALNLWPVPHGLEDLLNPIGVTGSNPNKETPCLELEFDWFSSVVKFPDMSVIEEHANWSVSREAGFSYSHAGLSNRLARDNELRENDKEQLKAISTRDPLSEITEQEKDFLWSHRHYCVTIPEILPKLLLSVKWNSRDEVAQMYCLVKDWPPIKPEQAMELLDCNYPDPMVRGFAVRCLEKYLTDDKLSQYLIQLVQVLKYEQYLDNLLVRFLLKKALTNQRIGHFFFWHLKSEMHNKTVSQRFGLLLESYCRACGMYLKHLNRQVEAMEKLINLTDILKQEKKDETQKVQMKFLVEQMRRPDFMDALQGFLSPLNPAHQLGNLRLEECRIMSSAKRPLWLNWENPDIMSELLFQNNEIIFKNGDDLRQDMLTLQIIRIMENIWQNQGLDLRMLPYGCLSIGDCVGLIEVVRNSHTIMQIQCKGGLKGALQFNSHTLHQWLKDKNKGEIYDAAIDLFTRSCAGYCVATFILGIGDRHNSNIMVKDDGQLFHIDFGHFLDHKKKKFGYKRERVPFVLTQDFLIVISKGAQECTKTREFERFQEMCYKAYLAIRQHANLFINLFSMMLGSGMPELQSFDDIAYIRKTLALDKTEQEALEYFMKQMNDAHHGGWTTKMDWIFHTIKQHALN

[2] = system: Epidermal growth factor receptor (Homo sapiens), P00533 [UNDEFINED MUTATION]; assay: Inhibition of human EGFR […] mutant assessed as percent of control at 2000 nM by KINOMEscan assay relative to control; parameters: scale not given: the % may be the effect or the level left
[3] = molecular target: Tyrosine-protein kinase CSK (Homo sapiens) (UniProt P41240); assay: Inhibition of human CSK assessed as percent of control at 2000 nM by KINOMEscan assay relative to control; parameters: scale not given: the % may be the effect or the level left
[4] = molecular target: Mitogen-activated protein kinase 1 (Homo sapiens) (UniProt P28482); assay: Inhibition of human ERK2 assessed as percent of control at 2000 nM by KINOMEscan assay relative to control; parameters: scale not given: the % may be the effect or the level left
Sequence of Mitogen-activated protein kinase 1 (Homo sapiens) (P28482 whole entry): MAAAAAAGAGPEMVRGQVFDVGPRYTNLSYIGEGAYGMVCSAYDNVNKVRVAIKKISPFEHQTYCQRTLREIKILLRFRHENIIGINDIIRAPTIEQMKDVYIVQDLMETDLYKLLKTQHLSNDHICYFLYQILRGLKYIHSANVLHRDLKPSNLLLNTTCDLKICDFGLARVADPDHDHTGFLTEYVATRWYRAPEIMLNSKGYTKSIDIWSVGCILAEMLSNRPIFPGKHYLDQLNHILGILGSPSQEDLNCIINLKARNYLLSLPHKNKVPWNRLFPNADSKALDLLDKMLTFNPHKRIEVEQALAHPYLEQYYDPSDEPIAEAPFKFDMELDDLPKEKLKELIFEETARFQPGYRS

[5] = molecular target: Rho-associated protein kinase 2 (Homo sapiens) (UniProt O75116); assay: Inhibition of human ROCK2 assessed as percent of control at 2000 nM by KINOMEscan assay relative to control; parameters: scale not given: the % may be the effect or the level left
[6] = molecular target: Calcium/calmodulin-dependent protein kinase type II subunit alpha (Homo sapiens) (UniProt Q9UQM7); assay: Inhibition of human CAMK2A assessed as percent of control at 2000 nM by KINOMEscan assay relative to control; parameters: scale not given: the % may be the effect or the level left
Sequence of Calcium/calmodulin-dependent protein kinase type II subunit alpha (Homo sapiens) (Q9UQM7 whole entry): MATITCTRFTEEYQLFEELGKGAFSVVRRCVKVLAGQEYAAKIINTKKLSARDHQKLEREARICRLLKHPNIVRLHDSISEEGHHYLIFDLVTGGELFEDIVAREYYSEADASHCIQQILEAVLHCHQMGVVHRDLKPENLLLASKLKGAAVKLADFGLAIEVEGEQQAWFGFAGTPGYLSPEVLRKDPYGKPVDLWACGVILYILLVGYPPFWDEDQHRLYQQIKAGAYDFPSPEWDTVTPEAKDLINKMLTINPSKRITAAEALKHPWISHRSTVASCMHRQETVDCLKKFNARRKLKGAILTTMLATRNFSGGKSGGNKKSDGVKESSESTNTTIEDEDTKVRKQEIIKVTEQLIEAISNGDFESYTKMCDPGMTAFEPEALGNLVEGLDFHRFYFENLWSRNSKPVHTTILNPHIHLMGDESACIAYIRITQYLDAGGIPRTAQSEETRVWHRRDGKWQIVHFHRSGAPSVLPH

[7] = molecular target: Ephrin type-B receptor 3 (Homo sapiens) (UniProt P54753); assay: Inhibition of human EPHB3 assessed as percent of control at 2000 nM by KINOMEscan assay relative to control; parameters: scale not given: the % may be the effect or the level left
[8] = molecular target: Focal adhesion kinase 1 (Homo sapiens) (UniProt Q05397); assay: Inhibition of human FAK assessed as percent of control at 2000 nM by KINOMEscan assay relative to control; parameters: scale not given: the % may be the effect or the level left
[9] = molecular target: Dual specificity protein kinase CLK3 (Homo sapiens) (UniProt P49761); assay: Inhibition of human CLK3 assessed as percent of control at 2000 nM by KINOMEscan assay relative to control; parameters: scale not given: the % may be the effect or the level left
[10] = molecular target: Protein-tyrosine kinase 2-beta (Homo sapiens) (UniProt Q14289); assay: Inhibition of human PYK2 assessed as percent of control at 2000 nM by KINOMEscan assay relative to control; parameters: scale not given: the % may be the effect or the level left
[11] = molecular target: Receptor-type tyrosine-protein kinase FLT3 (Homo sapiens) (UniProt P36888); assay: Inhibition of human autoinhibited FLT3 assessed as percent of control at 2000 nM by KINOMEscan assay relative to control; parameters: scale not given: the % may be the effect or the level left
[12] = molecular target: Eukaryotic translation initiation factor 2-alpha kinase 1 (Homo sapiens) (UniProt Q9BQI3); assay: Inhibition of human EIF2AK1 assessed as percent of control at 2000 nM by KINOMEscan assay relative to control; parameters: scale not given: the % may be the effect or the level left
Sequence of Eukaryotic translation initiation factor 2-alpha kinase 1 (Homo sapiens) (Q9BQI3 whole entry): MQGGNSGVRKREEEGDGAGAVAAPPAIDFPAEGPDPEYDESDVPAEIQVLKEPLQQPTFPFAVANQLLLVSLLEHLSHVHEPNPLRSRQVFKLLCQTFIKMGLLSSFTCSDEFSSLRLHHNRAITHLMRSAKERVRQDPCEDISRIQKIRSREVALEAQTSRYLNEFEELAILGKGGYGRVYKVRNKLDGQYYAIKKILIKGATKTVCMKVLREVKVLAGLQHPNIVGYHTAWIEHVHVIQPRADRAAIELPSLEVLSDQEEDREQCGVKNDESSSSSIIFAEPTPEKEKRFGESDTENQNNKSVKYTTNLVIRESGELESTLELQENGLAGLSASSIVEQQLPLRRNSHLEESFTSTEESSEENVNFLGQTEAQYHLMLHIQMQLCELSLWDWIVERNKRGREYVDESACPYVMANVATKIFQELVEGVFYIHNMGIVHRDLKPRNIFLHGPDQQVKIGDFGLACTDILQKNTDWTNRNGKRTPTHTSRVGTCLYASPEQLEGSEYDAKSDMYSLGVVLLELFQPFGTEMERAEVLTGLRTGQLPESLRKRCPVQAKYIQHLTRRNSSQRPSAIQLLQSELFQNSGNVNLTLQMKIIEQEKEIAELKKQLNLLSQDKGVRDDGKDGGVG

[13] = system: Hepatocyte growth factor receptor (Homo sapiens), P08581 [Y1235D]; assay: Inhibition of human MET Y1235D mutant assessed as percent of control at 2000 nM by KINOMEscan assay relative to control; parameters: scale not given: the % may be the effect or the level left
[14] = molecular target: Fibroblast growth factor receptor 4 (Homo sapiens) (UniProt P22455); assay: Inhibition of human FGFR4 assessed as percent of control at 2000 nM by KINOMEscan assay relative to control; parameters: scale not given: the % may be the effect or the level left
[15] = molecular target: Phosphatidylinositol 4,5-bisphosphate 3-kinase catalytic subunit delta isoform (Homo sapiens) (UniProt O00329); assay: Inhibition of human PIK3CD assessed as percent of control at 2000 nM by KINOMEscan assay relative to control; parameters: scale not given: the % may be the effect or the level left
[16] = molecular target: Ephrin type-A receptor 4 (Homo sapiens) (UniProt P54764); assay: Inhibition of human EPHA4 assessed as percent of control at 2000 nM by KINOMEscan assay relative to control; parameters: scale not given: the % may be the effect or the level left
Sequence of Ephrin type-A receptor 4 (Homo sapiens) (P54764 whole entry): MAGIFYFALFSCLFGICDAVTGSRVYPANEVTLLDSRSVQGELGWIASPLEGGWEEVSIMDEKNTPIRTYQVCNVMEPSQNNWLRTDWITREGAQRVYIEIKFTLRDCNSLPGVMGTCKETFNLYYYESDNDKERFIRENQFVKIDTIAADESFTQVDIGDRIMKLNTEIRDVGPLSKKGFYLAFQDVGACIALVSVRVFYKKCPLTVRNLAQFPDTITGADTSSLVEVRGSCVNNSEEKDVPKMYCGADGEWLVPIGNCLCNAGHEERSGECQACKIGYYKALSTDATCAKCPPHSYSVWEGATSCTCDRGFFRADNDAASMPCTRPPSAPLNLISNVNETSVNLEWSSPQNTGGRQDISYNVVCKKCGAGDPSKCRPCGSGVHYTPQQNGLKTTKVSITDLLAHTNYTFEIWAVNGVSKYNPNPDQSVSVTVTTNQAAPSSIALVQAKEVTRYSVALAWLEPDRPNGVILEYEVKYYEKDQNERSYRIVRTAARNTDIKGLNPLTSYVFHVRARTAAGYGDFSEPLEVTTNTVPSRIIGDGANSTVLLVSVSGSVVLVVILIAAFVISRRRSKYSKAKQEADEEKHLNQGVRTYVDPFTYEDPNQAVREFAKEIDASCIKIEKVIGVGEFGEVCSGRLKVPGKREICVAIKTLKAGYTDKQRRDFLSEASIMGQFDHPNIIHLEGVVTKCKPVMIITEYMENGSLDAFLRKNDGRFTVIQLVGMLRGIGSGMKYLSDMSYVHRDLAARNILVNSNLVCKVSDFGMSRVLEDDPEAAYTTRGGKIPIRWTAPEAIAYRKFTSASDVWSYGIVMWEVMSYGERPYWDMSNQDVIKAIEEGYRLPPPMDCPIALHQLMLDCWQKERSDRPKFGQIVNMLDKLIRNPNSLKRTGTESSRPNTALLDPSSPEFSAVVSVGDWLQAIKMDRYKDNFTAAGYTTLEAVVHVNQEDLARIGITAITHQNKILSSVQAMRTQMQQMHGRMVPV

[17] = molecular target: Serine/threonine-protein kinase NIM1 (Homo sapiens) (UniProt Q8IY84); assay: Inhibition of human NIM1 assessed as percent of control at 2000 nM by KINOMEscan assay relative to control; parameters: scale not given: the % may be the effect or the level left
[18] = molecular target: Phosphatidylinositol 5-phosphate 4-kinase type-2 gamma (Homo sapiens) (UniProt Q8TBX8); assay: Inhibition of human PIP5K2C assessed as percent of control at 2000 nM by KINOMEscan assay relative to control; parameters: scale not given: the % may be the effect or the level left
[19] = system: Receptor-type tyrosine-protein kinase FLT3 (Homo sapiens), P36888 [D835H]; assay: Inhibition of human FLT3 D835H mutant assessed as percent of control at 2000 nM by KINOMEscan assay relative to control; parameters: scale not given: the % may be the effect or the level left
[20] = molecular target: CDK4/Cyclin D3 (Homo sapiens) (UniProt P11802+P30281); assay: Inhibition of human CDK4/cyclin D3 assessed as percent of control at 2000 nM by KINOMEscan assay relative to control; type: protein-complex assay; parameters: scale not given: the % may be the effect or the level left
[21] = molecular target: Serine/threonine-protein kinase MARK2 (Homo sapiens) (UniProt Q7KZI7); assay: Inhibition of human MARK2 assessed as percent of control at 2000 nM by KINOMEscan assay relative to control; parameters: scale not given: the % may be the effect or the level left
[22] = molecular target: Serine/threonine-protein kinase PknB (Mycobacterium tuberculosis) (UniProt P9WI81); assay: Inhibition of Mycobacterium tuberculosis PKNB assessed as percent of control at 2000 nM by KINOMEscan assay relative to control; parameters: scale not given: the % may be the effect or the level left
Sequence of Serine/threonine-protein kinase PknB (Mycobacterium tuberculosis) (P9WI81 whole entry): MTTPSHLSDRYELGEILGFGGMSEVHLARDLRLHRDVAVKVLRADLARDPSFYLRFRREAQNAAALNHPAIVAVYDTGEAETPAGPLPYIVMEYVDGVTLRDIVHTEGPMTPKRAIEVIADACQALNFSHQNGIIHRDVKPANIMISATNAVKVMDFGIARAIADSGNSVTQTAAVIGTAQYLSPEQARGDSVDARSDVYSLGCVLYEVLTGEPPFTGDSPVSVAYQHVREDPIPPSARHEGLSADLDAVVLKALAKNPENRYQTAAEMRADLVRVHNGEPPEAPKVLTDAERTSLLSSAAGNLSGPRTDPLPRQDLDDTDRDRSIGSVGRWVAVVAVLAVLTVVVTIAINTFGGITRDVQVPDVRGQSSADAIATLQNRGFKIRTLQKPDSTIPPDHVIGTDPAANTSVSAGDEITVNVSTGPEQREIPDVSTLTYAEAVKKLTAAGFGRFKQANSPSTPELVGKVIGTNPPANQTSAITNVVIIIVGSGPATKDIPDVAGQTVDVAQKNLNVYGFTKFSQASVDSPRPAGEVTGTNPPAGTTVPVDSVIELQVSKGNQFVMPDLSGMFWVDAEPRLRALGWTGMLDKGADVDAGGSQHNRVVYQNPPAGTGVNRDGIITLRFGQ

[23] = molecular target: Dual specificity protein kinase CLK2 (Homo sapiens) (UniProt P49760); assay: Inhibition of human CLK2 assessed as percent of control at 2000 nM by KINOMEscan assay relative to control; parameters: scale not given: the % may be the effect or the level left
[24] = molecular target: Cyclin-dependent kinase 13 (Homo sapiens) (UniProt Q14004); assay: Inhibition of human CDC2L5 assessed as percent of control at 2000 nM by KINOMEscan assay relative to control; parameters: scale not given: the % may be the effect or the level left
[25] = molecular target: Tyrosine-protein kinase HCK (Homo sapiens) (UniProt P08631); assay: Inhibition of human HCK assessed as percent of control at 2000 nM by KINOMEscan assay relative to control; parameters: scale not given: the % may be the effect or the level left
[26] = molecular target: MAP/microtubule affinity-regulating kinase 3 (Homo sapiens) (UniProt P27448); assay: Inhibition of human MARK3 assessed as percent of control at 2000 nM by KINOMEscan assay relative to control; parameters: scale not given: the % may be the effect or the level left
Sequence of MAP/microtubule affinity-regulating kinase 3 (Homo sapiens) (P27448 whole entry, looked up): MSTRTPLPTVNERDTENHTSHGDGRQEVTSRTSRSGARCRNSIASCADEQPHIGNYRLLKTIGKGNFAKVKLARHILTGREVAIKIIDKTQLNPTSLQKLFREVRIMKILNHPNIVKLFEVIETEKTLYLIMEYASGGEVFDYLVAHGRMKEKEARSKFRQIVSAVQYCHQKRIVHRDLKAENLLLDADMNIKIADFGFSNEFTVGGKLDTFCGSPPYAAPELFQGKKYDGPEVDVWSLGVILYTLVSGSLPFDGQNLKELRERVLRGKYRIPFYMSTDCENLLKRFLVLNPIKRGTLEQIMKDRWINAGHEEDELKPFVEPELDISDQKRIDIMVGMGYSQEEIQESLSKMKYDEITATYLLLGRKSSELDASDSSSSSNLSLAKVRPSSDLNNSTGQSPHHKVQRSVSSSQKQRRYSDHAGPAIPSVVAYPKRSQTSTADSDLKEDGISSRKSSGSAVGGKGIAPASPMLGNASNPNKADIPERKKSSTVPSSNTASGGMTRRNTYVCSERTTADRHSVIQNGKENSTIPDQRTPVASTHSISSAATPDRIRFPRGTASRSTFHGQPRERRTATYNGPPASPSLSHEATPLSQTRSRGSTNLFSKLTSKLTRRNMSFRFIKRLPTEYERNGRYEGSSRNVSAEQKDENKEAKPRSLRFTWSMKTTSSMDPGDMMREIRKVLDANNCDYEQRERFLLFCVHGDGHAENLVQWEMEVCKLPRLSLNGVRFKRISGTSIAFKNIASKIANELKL

Myc-CaP = assay: Antitumor activity against murine castration-resistant Myc-CaP cells xenografted in male FVB mouse assessed as suppression of tumor volume in presence of enzalutamide; type: functional
[27] = molecular target: Mitogen-activated protein kinase kinase kinase kinase 5 (Homo sapiens) (UniProt Q9Y4K4); assay: Inhibition of human MAP4K5 assessed as percent of control at 2000 nM by KINOMEscan assay relative to control; parameters: scale not given: the % may be the effect or the level left
[28] = molecular target: Homeodomain-interacting protein kinase 1 (Homo sapiens) (UniProt Q86Z02); assay: Inhibition of human HIPK1 assessed as percent of control at 2000 nM by KINOMEscan assay relative to control; parameters: scale not given: the % may be the effect or the level left
[29] = molecular target: Testis-specific serine/threonine-protein kinase 3 (Homo sapiens) (UniProt Q96PN8); assay: Inhibition of human TSSK3 assessed as percent of control at 2000 nM by KINOMEscan assay relative to control; parameters: scale not given: the % may be the effect or the level left
[30] = molecular target: Receptor-type tyrosine-protein kinase FLT3 (Homo sapiens) (UniProt P36888); assay: Inhibition of human FLT3 assessed as percent of control at 2000 nM by KINOMEscan assay relative to control; parameters: scale not given: the % may be the effect or the level left

In the case of CN(C)C(=O)c1ccc(N2CCCN(c3ccnc4sc(C(N)=O)c(N)c34)CC2)cc1, the Activity [1] is reported as 100% and 86%, the Activity [2] is reported as 86% and 100% and the Activity [3] is reported as 86% and 92%. For the same compound, the Activity [4] was 78% and 92%, the Activity [5] was 100% and 80% and the Activity [6] was 90% and 100%. The Activity [7] was 96% and 94%, the Activity [8] was 100% and 96% and the Activity [9] was 100% and 95%. The Activity [10] was 97% and 84%, the Activity [11] was 72% and 77% and the Activity [12] was 93% and 78%. The Activity [13] was 100%, the Activity [14] was 100% and 96% and the Activity [15] was 94% and 71%. For the same compound, the Activity [16] was 100%, the Activity [17] was 56% and 78% and the Activity [18] was 80% and 64%. For the same compound, the Activity [19] was 63% and 76%, the Activity [20] was 95% and 97% and the Activity [21] was 100% and 96%. The Activity [22] was 100% and 90%, the Activity [23] was 75% and 83% and the Activity [24] was 71% and 80%. For the same compound, the Activity [25] was 96%, the Activity [26] was 98% and 100% and the Activity (Myc-CaP) was “Active”. For the same compound, the Activity [27] was 100% and 97%, the Activity [28] was 86% and 71% and the Activity [29] was 93% and 100%. The Activity [30] was 94% and 86%.
